# Assay results as given in patent publication US9609810B2, “Methods for modulating photosynthetic activity” (priority 2012, dated 2017).
# What was measured:
# Type in all cases: in vivo
# corn (Zea Maize) = test: Water used to irrigate corn grown under field conditions; conditions: end of growing season; compared to non-treated control corn
# Description: In the following example, a treatment group of corn (Zea Maize) is sprayed once each evening with an aqueous “treatment solution” of 10 ppm sodium hydrosulfide (NaHS) in distilled water, buffered with phosphate, to a pH of 7.4. The control group of plants is sprayed once each evening with an equivalent amount of “control solution” consisting of distilled water buffered with phosphate to a pH of 7.4. An experimental plot may be setup with 8 repetitions to obtain statistically independent results. The treatment (aqueous NaHS) and control (water alone) plots may be set up following a randomized scheme. […]
# Water Use Measurements. […] This allows the measurement of water used in every single plot such that evaluation of water use differences between the water-alone control crops and NaHS treated crops can be monitored. The system is installed in such a way that every plant may receive a given amount of water determined by using constant rate water applicators. […] Soil water content (SWC) is measured continuously, using a Time Domain Reflectometer sensor installed in each of the twenty-four rows. […] The sensors are monitored by a datalogger (model 23X, Campbell Scientific Inc., Logan, Utah). The probes may be 30 cm long, and can be buried vertically, such that average volumetric water content of the top 30 cm of the soil is measured. […] The soil water content may be measured every 60 seconds. […]
# [1] = system: potted pepper (Capsicum sp.) plants; test: Transpiration reduction in pepper plants grown in a growth chamber; conditions: compared to control plants
# Method: In the following example, a treatment group of potted pepper (Capsicum sp.) plants is sprayed once each evening with an aqueous “treatment solution” of 10 ppm sodium hydrosulfide (NaHS) in distilled water, buffered with phosphate, to a pH of 7.4. The control group of plants is sprayed once each evening with an equivalent amount of “control solution” consisting of distilled water buffered with phosphate to a pH of 7.4. Potted pepper plants are grown in a temperature controlled growth-chamber under metal halide lamps. Average temperature in the growth chamber is about 20° C., and relative humidity is about 60%. Pots contain a greenhouse mix peat soil enriched with slow release fertilizer. Environmental conditions (light, temperature, and relative humidity) inside the growth chamber are monitored every 30 minutes during the experiment using standard environmental sensors such as a pyranometer, thermocouple psychrometer, relative humidity sensor and a datalogger. […]
# The treatment solution of aqueous sodium hydrosulfide (NaHS) is sprayed once each night onto the top surface and bottom surface of leaves as described in Example 1 using a simple hand sprayer. The control group receives the same quantity of water alone which is sprayed each night onto the leaves in the same fashion as the treated group. […]
# [2] = system: dwarf sunflower (Helianthus annuus L.) plants; test: Stomata conductance and transpiration in greenhouse-grown plants; conditions: foliar application of aqueous 10 ppm NaHS, pH 7.4, once per evening for one week; compared to control plants
# Description: In the following example, a treatment group of dwarf sunflower (Helianthus annuus L.) plants is sprayed once each evening with an aqueous “treatment solution” of 10 ppm sodium hydrosulfide (NaHS) in distilled water, buffered with phosphate, to a pH of 7.4. The control group of plants is sprayed once each evening with an equivalent amount of “control solution” consisting of distilled water buffered with phosphate to a pH of 7.4. The treatment and control groups each include seven plants. The dwarf sunflower plants are grown from seed in 20-cm diameter plastic pots. Each pot contains one plant growing in a peat, sand mixture. […]
# Stomata conductance is measured with a steady state porometer (LiCor model LI-1600, LiCor Inc., Lincoln, Nebr.). Measurements are made on the abaxial leaf surfaces where the majority of stomata are located and are recorded after the treated group and the control group are sprayed once per evening for one week.
# The transpiration rate is determined by calculating the vapor pressure at the evaporating surface (leaf) and the air vapor pressure. The saturated vapor pressure of the leaf is calculated by measuring leaf temperature. Leaf temperature is measured using an external thermocouple as well as the LICor porometer. […] Relative humidity is determined using a sling psychrometer. […] Averages for 7 plants of each group are calculated and plotted.
smiles,measurement,setting,value
"S [NaHS, sodium hydrosulfide]",biomass production (total dry matter),corn (Zea Maize),higher biomass production
same,transpiration,[1]; optimally watered plants sprayed each night with 10 ppm NaHS,reduction in transpiration
same,cumulative water use,"[1]; water stress conditions, sprayed each night with 10 ppm NaHS",cumulative water use in control plants is consistently higher
same,stomata conductance,[2],decrease in stomata conductance
